The text below walks through data of patent publication US8912176B2 (Evotec AG, priority 2009, dated 2014).

For the experiment, the target named is human H3 receptor (Homo sapiens, UniProt Q9Y5N1). As to the kind of experiment: cAMP quantification assay for human H3 receptor (DiscoveRx cAMP XS+).
Chain of human H3 receptor (Q9Y5N1 whole entry): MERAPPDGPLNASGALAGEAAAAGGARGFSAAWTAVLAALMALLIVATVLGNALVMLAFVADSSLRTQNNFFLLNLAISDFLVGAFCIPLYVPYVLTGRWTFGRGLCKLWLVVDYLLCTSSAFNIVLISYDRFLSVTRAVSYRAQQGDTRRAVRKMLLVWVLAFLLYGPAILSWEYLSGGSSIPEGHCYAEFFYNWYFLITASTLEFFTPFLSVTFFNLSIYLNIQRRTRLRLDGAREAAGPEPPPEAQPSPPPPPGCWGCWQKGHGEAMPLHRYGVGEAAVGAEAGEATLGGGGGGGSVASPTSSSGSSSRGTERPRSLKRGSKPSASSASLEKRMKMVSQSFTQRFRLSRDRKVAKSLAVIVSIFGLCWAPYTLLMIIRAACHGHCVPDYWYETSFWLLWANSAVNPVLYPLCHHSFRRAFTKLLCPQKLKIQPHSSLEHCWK
What is called IC50 is the concentration needed to halve the response being measured. In turn, `N#Cc1ccc(OC(=O)N2CC(C(=O)N3CCCN(C4CCC4)CC3)C2)cc1` [Example 69, 4-cyanophenyl 3-[(4-cyclobutyl-1,4-diazepan-1-yl)carbonyl]azetidine-1-carboxylate] displayed an IC50 of under 50 nM. The molecule `CN(CC1CCCCC1)C(=O)N1CC(C(=O)N2CCCN(C3CCC3)CC2)C1` [Example 60, 3-[(4-cyclobutyl-1,4-diazepan-1-yl)carbonyl]-N-(cyclohexylmethyl)-N-methylazetidine-1-carboxamide] yielded a half-maximal inhibitory concentration (IC50) of under 50 nM. `CC(C)c1ccc(C(=O)N2CC(C(=O)N3CCCN(C4CCC4)CC3)C2)cc1` [Example 38, 1-cyclobutyl-4-[(1-{[4-(1-methylethyl)phenyl]carbonyl}azetidin-3-yl)carbonyl]-1,4-diazepane] gave an IC50 of under 50 nM.

`O=C(C1CN(C(=O)C2CCCCC2)C1)N1CCCN(C2CCC2)CC1` [Example 4, 1-cyclobutyl-4-{[1-(cyclohexylcarbonyl)azetidin-3-yl]carbonyl}-1,4-diazepane]: the IC50 is under 50 nM. In turn, `Cc1cc(C(=O)N2CC(C(=O)N3CCCN(C4CCC4)CC3)C2)ccn1` [Example 75, 1-cyclobutyl-4-({1-[(2-methylpyridin-4-yl)carbonyl]azetidin-3-yl}carbonyl)-1,4-diazepane] came in with an IC50 of under 50 nM.

Take `N#Cc1ccc(NC(=O)N2CC(C(=O)N3CCCN(C4CCC4)CC3)C2)cc1` [Example 59, N-(4-cyanophenyl)-3-[(4-cyclobutyl-1,4-diazepan-1-yl)carbonyl]azetidine-1-carboxamide]: the IC50 was under 50 nM. The value for `Cc1nnc(-c2ccc(C(=O)N3CC(C(=O)N4CCCN(C5CCC5)CC4)C3)cc2)o1` [Example 31, 1-cyclobutyl-4-[(1-{[4-(5-methyl-1,3,4-oxadiazol-2-yl)phenyl]carbonyl}azetidin-3-yl)carbonyl]-1,4-diazepane] was under 50 nM. On to `Cc1ccc(C(=O)N2CC(C(=O)N3CCCN(CC(C)C)CC3)C2)cn1` [Example 84, 1-(2-methylpropyl)-4-({1-[(6-methylpyridin-3-yl)carbonyl]azetidin-3-yl}carbonyl)-1,4-diazepane], for which the IC50 is 100 to 5000 nM. Regarding `Cc1ccc(C(=O)N2CC(C(=O)N3CCCN(C4CCCC4)CC3)C2)cn1` [Example 81, 1-cyclopentyl-4-({1-[(6-methylpyridin-3-yl)carbonyl]azetidin-3-yl}carbonyl)-1,4-diazepane], the IC50 was under 50 nM. Molecule `Cc1nc(-c2ccc(C(=O)N3CC(C(=O)N4CCCN(C5CCC5)CC4)C3)cc2)cs1` [Example 36, 1-cyclobutyl-4-[(1-{[4-(2-methyl-1,3-thiazol-4-yl)phenyl]carbonyl}azetidin-3-yl)carbonyl]-1,4-diazepane] came in with a half-inhibitory concentration (IC50) of under 50 nM. Turning to `CNC(=O)c1ccc(C(=O)N2CC(C(=O)N3CCCN(C4CCC4)CC3)C2)cn1` [Example 77, 5-({3-[(4-cyclobutyl-1,4-diazepan-1-yl)carbonyl]azetidin-1-yl}carbonyl)-N-methylpyridine-2-carboxamide], the IC50 was under 50 nM.

With `O=C(c1ccc(-n2cncn2)nc1)N1CC(C(=O)N2CCCN(C3CCC3)CC2)C1` [Example 13, 1-cyclobutyl-4-[(1-{[6-(1H-1,2,4-triazol-1-yl)pyridin-3-yl]carbonyl}azetidin-3-yl)carbonyl]-1,4-diazepane], the IC50 was under 50 nM.

Regarding `Cc1nc(-c2ccc(C(=O)N3CC(C(=O)N4CCCN(C5CCC5)CC4)C3)cc2)no1` [Example 37, 1-cyclobutyl-4-[(1-{[4-(5-methyl-1,2,4-oxadiazol-3-yl)phenyl]carbonyl}azetidin-3-yl)carbonyl]-1,4-diazepane], the IC50 is under 50 nM. In turn, `Cc1ccc(C(=O)N2CC(C(=O)N3CCCN(C4CCC4)CC3)C2)cn1` [Example 10, 1-cyclobutyl-4-({1-[(6-methylpyridin-3-yl)carbonyl]azetidin-3-yl}carbonyl)-1,4-diazepane] showed an IC50 of under 50 nM. The value for `O=C(c1ccc(-c2ccncc2)cc1)N1CC(C(=O)N2CCCN(C3CCC3)CC2)C1` [Example 45, 1-cyclobutyl-4-({1-[(4-pyridin-4-ylphenyl)carbonyl]azetidin-3-yl}carbonyl)-1,4-diazepane] was under 50 nM. `O=C(CN1CCCCC1)N1CC(C(=O)N2CCCN(C3CCC3)CC2)C1` [Example 16, 1-cyclobutyl-4-{[1-(piperidin-1-ylacetyl)azetidin-3-yl]carbonyl}-1,4-diazepane]: the IC50 is under 50 nM.

`O=C(CN1CCS(=O)(=O)CC1)N1CC(C(=O)N2CCCN(C3CCC3)CC2)C1` [Example 18, 1-cyclobutyl-4-({1-[(1,1-dioxidothiomorpholin-4-yl)acetyl]azetidin-3-yl}carbonyl)-1,4-diazepane]: the IC50 is under 50 nM. As for `O=C(Oc1ccc(Cl)cc1)N1CC(C(=O)N2CCCN(C3CCC3)CC2)C1` [Example 67, 4-chlorophenyl 3-[(4-cyclobutyl-1,4-diazepan-1-yl)carbonyl]azetidine-1-carboxylate], the IC50 is under 50 nM.

Take `O=C(C1CN(S(=O)(=O)CC2CCCC2)C1)N1CCCN(C2CCC2)CC1` [Example 25, 1-cyclobutyl-4-({1-[(cyclopentylmethyl)sulfonyl]azetidin-3-yl}carbonyl)-1,4-diazepane]: the IC50 is under 50 nM. The value for `O=C(C1CN(C(=O)C2CCOCC2)C1)N1CCCN(C2CCC2)CC1` [Example 5, 1-cyclobutyl-4-{[1-(tetrahydro-2H-pyran-4-ylcarbonyl)azetidin-3-yl]carbonyl}-1,4-diazepane] was under 50 nM; that for `CN(Cc1ccc(F)cc1)C(=O)N1CC(C(=O)N2CCCN(C3CCC3)CC2)C1` [Example 62, 3-[(4-cyclobutyl-1,4-diazepan-1-yl)carbonyl]-N-(4-fluorobenzyl)-N-methylazetidine-1-carboxamide] was under 50 nM.

In the case of `O=C(C1CN(C(=O)N2CCCCC2)C1)N1CCCN(C2CCC2)CC1` [Example 2, 1-cyclobutyl-4-{[1-(piperidin-1-ylcarbonyl)azetidin-3-yl]carbonyl}-1,4-diazepane], the IC50 was under 50 nM. The molecule `O=C(c1ccc(-n2cccn2)cc1)N1CC(C(=O)N2CCCN(C3CCC3)CC2)C1` [Example 40, 1-cyclobutyl-4-[(1-{[4-(1H-pyrazol-1-yl)phenyl]carbonyl}azetidin-3-yl)carbonyl]-1,4-diazepane] yielded an IC50 of under 50 nM. `O=C(C1CN(S(=O)(=O)C2CCCCC2)C1)N1CCCN(C2CCC2)CC1` [Example 24, 1-cyclobutyl-4-{[1-(cyclohexylsulfonyl)azetidin-3-yl]carbonyl}-1,4-diazepane] displayed an IC50 of under 50 nM. The molecule `CCC(=O)N1CC(C(=O)N2CCCN(C3CCC3)CC2)C1` [Example 71, 1-cyclobutyl-4-[(1-propanoylazetidin-3-yl)carbonyl]-1,4-diazepane] came in with an IC50 of under 50 nM. Molecule `Cc1ccc(C(=O)N2CC(C(=O)N3CCCN(C(C)C)CC3)C2)cn1` [Example 79, 1-(1-methylethyl)-4-({1-[(6-methylpyridin-3-yl)carbonyl]azetidin-3-yl}carbonyl)-1,4-diazepane] showed an IC50 of 100 to 5000 nM. Molecule `O=C(c1ccc(-n2cncn2)c(F)c1)N1CC(C(=O)N2CCCN(C3CCC3)CC2)C1` [Example 78, 1-cyclobutyl-4-[(1-{[3-fluoro-4-(1H-1,2,4-triazol-1-yl)phenyl]carbonyl}azetidin-3-yl)carbonyl]-1,4-diazepane] registered a 50% inhibitory concentration (IC50) of under 50 nM. Molecule `O=C(CC1CCOCC1)N1CC(C(=O)N2CCCN(C3CCC3)CC2)C1` [Example 53, 1-cyclobutyl-4-{[1-(tetrahydro-2H-pyran-4-ylacetyl)azetidin-3-yl]carbonyl}-1,4-diazepane] yielded a half-maximal inhibitory concentration (IC50) of 100 to 5000 nM. In turn, `N#Cc1ccc(S(=O)(=O)N2CC(C(=O)N3CCCN(C4CCC4)CC3)C2)cc1` [Example 27, 4-({3-[(4-cyclobutyl-1,4-diazepan-1-yl)carbonyl]azetidin-1-yl}sulfonyl)benzonitrile] returned an IC50 of under 50 nM.

In turn, `O=C(OCc1ccccc1)N1CC(C(=O)N2CCCN(C3CCC3)CC2)C1` [Example 1, benzyl 3-[(4-cyclobutyl-1,4-diazepan-1-yl)carbonyl]azetidine-1-carboxylate] yielded an IC50 of under 50 nM.

As for `O=C(CN1CCOCC1)N1CC(C(=O)N2CCCN(C3CCC3)CC2)C1` [Example 17, 1-cyclobutyl-4-{[1-(morpholin-4-ylacetyl)azetidin-3-yl]carbonyl}-1,4-diazepane], the IC50 was under 50 nM. As to `O=C(NCC1CCCCC1)N1CC(C(=O)N2CCCN(C3CCC3)CC2)C1` [Example 56, 3-[(4-cyclobutyl-1,4-diazepan-1-yl)carbonyl]-N-(cyclohexylmethyl)azetidine-1-carboxamide], the IC50 is under 50 nM. In the case of `O=C(c1ccc(-n2ccnc2)nc1)N1CC(C(=O)N2CCCN(C3CCC3)CC2)C1` [Example 12, 1-cyclobutyl-4-[(1-{[6-(1H-imidazol-1-yl)pyridin-3-yl]carbonyl}azetidin-3-yl)carbonyl]-1,4-diazepane], the IC50 was under 50 nM. Take `O=C(C1CN(C(=O)N2CCOCC2)C1)N1CCCN(C2CCC2)CC1` [Example 3, 1-cyclobutyl-4-{[1-(morpholin-4-ylcarbonyl)azetidin-3-yl]carbonyl}-1,4-diazepane]: the IC50 is under 50 nM. The value for `N#Cc1ccc(CNC(=O)N2CC(C(=O)N3CCCN(C4CCC4)CC3)C2)cc1` [Example 66, N-(4-cyanobenzyl)-3-[(4-cyclobutyl-1,4-diazepan-1-yl)carbonyl]azetidine-1-carboxamide] was under 50 nM.

On to `Cc1ccc(OCC(=O)N2CC(C(=O)N3CCCN(C4CCC4)CC3)C2)cn1` [Example 21, 1-cyclobutyl-4-[(1-{[(6-methylpyridin-3-yl)oxy]acetyl}azetidin-3-yl)carbonyl]-1,4-diazepane], for which the IC50 is under 50 nM. As to `COc1ccc(S(=O)(=O)N2CC(C(=O)N3CCCN(C4CCC4)CC3)C2)cc1` [Example 23, 1-cyclobutyl-4-({1-[(4-methoxyphenyl)sulfonyl]azetidin-3-yl}carbonyl)-1,4-diazepane], the IC50 lay in the range of 50 to 100 nM. The value for `O=C(c1ccc(-c2nccs2)cc1)N1CC(C(=O)N2CCCN(C3CCC3)CC2)C1` [Example 35, 1-cyclobutyl-4-[(1-{[4-(1,3-thiazol-2-yl)phenyl]carbonyl}azetidin-3-yl)carbonyl]-1,4-diazepane] was under 50 nM.
